In paper PMC10093836, “Stabilization of the Dimeric State of SARS-CoV-2 Main Protease by GC376 and Nirmatrelvir” (International Journal of Molecular Sciences, 2023):

Target: SARS-CoV-2 Mpro dimer (Severe acute respiratory syndrome coronavirus 2, UniProt P0DTD1)
Test: SAXS monomer-dimer equilibrium of Mpro in the presence of inhibitors

## CC(C)c1nc(CN(C)C(=O)N[C@H](C(=O)N[C@@H](Cc2ccccc2)C[C@H](O)[C@H](Cc2ccccc2)NC(=O)OCc2cncs2)C(C)C)cs1 [RTV, ritonavir]
Mpro alone 1.3 ± 0.4
  ΔCp of Mpro dimer dissociation: 4 ± 1 kJ K^−1mol^−1
T0 = 298.15 K, Mpro alone −30 ± 10
  ΔS^0 of Mpro dimer dissociation: −70 ± 50 J K^−1mol^−1
T0 = 298.15 K, derived parameter of the fit, Mpro alone 21 ± 4
  ΔH^0 of Mpro dimer dissociation: 2.63 ± 1.2 kcal/mol
